These results are taken from ChEMBL document CHEMBL3132769, “Fragment growing to retain or alter the selectivity of anchored kinase hinge-binding fragments” (Medchemcomm, 2014).

Test [1] has as its target T1, Interleukin-1 receptor-associated kinase 4 (Homo sapiens) (UniProt Q9NWZ3).
T1 sequence (whole entry): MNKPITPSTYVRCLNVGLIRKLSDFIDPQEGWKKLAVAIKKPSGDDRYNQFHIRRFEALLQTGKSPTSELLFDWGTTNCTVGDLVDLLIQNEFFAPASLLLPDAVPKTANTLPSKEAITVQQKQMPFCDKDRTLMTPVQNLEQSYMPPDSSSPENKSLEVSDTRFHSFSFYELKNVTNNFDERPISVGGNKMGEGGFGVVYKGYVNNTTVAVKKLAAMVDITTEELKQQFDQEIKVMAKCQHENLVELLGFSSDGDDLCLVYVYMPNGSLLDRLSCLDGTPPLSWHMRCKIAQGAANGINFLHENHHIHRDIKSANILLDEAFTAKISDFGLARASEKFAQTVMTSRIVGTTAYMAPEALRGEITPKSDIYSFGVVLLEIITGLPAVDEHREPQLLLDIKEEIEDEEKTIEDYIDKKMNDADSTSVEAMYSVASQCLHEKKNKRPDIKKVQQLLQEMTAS
Nature of the test: Inhibition of human IRAK4 catalytic domain expressed in baculovirus assessed as substrate phosphorylation using fluorescence-labelled peptides as substrate at 8 uM after 90 mins by microfluidic peptide phosphorylation assay.

Test [2] deals with Platelet-derived growth factor receptor alpha (Homo sapiens) (UniProt P16234). Put plainly: Inhibition of human PDGFR alpha catalytic domain expressed in baculovirus assessed as substrate phosphorylation using fluorescence-labelled peptides as substrate at 420 uM after 90 mins by microfluidic peptide phosphorylation assay.
Chain of Platelet-derived growth factor receptor alpha (Homo sapiens) (P16234 whole entry, the tested form may be a part): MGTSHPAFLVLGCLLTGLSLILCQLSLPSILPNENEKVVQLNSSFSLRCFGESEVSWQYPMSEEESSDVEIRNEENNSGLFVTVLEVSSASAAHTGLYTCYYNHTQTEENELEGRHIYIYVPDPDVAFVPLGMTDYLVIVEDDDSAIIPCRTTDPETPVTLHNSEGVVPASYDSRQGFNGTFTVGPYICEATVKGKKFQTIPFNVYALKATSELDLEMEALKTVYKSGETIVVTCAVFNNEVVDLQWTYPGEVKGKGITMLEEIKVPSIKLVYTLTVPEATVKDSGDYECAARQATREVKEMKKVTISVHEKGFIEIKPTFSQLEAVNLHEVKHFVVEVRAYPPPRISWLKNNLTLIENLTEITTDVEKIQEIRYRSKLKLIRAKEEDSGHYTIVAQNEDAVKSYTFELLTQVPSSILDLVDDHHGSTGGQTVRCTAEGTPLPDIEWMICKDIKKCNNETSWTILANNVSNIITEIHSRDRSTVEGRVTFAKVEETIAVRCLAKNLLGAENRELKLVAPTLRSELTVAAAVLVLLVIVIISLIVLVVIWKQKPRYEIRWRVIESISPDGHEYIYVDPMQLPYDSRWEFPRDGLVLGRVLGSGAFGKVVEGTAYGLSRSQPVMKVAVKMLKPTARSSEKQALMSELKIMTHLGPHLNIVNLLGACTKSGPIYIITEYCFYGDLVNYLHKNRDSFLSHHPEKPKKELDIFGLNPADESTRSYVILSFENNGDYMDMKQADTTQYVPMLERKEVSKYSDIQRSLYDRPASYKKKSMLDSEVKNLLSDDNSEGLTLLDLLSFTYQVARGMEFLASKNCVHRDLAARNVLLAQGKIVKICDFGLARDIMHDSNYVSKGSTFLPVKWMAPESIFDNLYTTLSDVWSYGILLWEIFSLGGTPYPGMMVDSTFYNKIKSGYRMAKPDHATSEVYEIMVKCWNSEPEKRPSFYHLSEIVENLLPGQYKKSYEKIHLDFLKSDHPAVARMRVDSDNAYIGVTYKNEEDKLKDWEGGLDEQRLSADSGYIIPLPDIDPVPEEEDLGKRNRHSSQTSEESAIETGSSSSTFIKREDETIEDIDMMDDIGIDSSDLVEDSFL
Test [3] has as its target MAP/microtubule affinity-regulating kinase 3 (Homo sapiens) (UniProt P27448). Put plainly: Inhibition of human full length c-TAK1 expressed in Escherichia coli cell assessed as substrate phosphorylation using fluorescence-labelled peptides as substrate at 0.06 uM after 90 mins by microfluidic peptide phosphorylation assay.
Test [4] concerns the target Protein kinase C delta type (Homo sapiens) (UniProt Q05655). Nature of the test: Inhibition of human truncated PKC delta expressed in baculovirus assessed as substrate phosphorylation using fluorescence-labelled peptides as substrate at 0.06 uM after 90 mins by microfluidic peptide phosphorylation assay.
In test [5] the target is T2, Serine/threonine-protein kinase D1 (Homo sapiens) (UniProt Q15139).
T2 sequence (whole entry): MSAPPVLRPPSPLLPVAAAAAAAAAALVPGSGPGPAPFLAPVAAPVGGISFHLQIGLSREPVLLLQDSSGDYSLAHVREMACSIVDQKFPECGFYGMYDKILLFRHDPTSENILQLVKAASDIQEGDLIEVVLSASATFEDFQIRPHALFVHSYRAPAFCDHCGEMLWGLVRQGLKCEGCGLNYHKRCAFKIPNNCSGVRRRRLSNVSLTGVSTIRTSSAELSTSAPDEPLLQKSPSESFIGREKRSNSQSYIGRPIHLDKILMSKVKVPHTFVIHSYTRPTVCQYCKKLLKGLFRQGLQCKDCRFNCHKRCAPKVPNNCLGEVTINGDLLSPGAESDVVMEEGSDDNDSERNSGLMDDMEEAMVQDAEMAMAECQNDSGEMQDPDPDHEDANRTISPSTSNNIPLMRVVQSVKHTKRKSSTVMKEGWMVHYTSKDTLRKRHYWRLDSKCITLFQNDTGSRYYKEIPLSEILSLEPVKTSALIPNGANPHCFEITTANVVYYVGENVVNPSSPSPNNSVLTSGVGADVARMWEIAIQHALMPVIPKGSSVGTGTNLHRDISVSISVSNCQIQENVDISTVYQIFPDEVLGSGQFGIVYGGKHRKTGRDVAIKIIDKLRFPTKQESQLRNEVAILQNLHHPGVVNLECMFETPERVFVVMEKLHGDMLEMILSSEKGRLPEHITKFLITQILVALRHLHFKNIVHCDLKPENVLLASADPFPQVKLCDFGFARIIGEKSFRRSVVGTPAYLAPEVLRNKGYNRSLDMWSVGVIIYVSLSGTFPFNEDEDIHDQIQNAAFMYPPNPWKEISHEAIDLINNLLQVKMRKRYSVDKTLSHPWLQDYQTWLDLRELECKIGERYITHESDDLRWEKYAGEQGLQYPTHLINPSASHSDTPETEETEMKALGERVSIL
Nature of the test: Inhibition of human full length PKD1 expressed in baculovirus assessed as substrate phosphorylation using fluorescence-labelled peptides as substrate at 9 uM after 90 mins by microfluidic peptide phosphorylation assay.

The target of test [6] is T3, Serine/threonine-protein kinase BRSK1 (Homo sapiens) (UniProt Q8TDC3).
T3 sequence (whole entry): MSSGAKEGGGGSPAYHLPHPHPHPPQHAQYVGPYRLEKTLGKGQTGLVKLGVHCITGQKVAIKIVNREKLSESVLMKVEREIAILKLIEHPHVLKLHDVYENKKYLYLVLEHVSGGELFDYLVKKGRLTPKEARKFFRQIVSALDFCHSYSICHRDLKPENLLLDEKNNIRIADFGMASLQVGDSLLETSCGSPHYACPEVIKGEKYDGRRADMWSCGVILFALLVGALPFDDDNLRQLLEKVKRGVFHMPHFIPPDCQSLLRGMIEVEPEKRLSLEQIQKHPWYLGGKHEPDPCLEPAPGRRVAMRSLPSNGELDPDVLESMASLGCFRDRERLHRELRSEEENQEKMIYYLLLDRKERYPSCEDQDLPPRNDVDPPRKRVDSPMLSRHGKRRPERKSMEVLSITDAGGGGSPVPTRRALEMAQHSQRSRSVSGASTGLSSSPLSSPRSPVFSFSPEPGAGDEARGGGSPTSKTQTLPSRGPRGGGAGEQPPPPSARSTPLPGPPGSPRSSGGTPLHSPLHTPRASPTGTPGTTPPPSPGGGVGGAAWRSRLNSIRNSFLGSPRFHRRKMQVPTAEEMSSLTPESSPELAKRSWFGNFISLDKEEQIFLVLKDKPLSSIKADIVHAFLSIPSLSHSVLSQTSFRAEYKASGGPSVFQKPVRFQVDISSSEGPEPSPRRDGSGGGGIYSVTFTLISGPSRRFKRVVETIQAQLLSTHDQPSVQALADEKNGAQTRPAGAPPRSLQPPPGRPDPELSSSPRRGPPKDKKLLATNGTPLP
Put plainly: Inhibition of human full length BRSK1 expressed in baculovirus assessed as substrate phosphorylation using fluorescence-labelled peptides as substrate at 70 uM after 90 mins by microfluidic peptide phosphorylation assay.

Test [7] deals with MAP kinase p38 (Homo sapiens) (UniProt O15264+Q15759+Q16539+P53778). Nature of the test: Inhibition of human full length p38 beta2 expressed in Escherichia coli cell assessed as substrate phosphorylation using fluorescence-labelled peptides as substrate at 2 uM after 90 mins by microfluidic peptide phosphorylation assay.
Chain of MAP kinase p38 (Homo sapiens) (O15264 whole entry, looked up, the tested form may be a part): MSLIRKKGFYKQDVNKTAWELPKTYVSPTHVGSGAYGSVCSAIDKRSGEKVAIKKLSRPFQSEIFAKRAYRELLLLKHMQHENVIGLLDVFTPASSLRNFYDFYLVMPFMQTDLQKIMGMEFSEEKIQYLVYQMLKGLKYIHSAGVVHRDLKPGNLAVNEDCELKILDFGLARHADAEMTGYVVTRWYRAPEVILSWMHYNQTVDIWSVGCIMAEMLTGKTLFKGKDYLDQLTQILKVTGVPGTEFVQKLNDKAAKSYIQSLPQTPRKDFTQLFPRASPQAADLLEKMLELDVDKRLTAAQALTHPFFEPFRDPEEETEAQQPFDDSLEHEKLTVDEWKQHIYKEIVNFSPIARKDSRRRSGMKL
Chain of MAP kinase p38 (Homo sapiens) (P53778 whole entry, looked up, the tested form may be a part): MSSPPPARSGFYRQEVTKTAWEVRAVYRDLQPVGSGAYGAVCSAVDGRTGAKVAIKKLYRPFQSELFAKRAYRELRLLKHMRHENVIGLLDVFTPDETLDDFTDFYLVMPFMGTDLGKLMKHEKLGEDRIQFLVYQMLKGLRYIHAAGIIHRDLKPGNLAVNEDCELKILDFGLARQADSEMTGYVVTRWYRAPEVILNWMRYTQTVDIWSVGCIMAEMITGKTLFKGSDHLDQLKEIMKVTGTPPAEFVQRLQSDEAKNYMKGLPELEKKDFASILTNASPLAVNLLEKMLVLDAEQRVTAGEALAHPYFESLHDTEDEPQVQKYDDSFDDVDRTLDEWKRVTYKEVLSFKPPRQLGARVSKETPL
Chain of MAP kinase p38 (Homo sapiens) (Q15759 whole entry, looked up, the tested form may be a part): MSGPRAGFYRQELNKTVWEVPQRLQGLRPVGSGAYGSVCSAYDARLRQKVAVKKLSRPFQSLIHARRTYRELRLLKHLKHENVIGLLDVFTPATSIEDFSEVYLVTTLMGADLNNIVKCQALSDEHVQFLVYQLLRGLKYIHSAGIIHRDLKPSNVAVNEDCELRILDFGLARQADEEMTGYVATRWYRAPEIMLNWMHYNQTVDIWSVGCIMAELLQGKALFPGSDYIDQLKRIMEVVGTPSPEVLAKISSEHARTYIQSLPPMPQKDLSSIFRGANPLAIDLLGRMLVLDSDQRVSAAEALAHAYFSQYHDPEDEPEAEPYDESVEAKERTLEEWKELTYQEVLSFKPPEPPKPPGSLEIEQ
Chain of MAP kinase p38 (Homo sapiens) (Q16539 whole entry, looked up, the tested form may be a part): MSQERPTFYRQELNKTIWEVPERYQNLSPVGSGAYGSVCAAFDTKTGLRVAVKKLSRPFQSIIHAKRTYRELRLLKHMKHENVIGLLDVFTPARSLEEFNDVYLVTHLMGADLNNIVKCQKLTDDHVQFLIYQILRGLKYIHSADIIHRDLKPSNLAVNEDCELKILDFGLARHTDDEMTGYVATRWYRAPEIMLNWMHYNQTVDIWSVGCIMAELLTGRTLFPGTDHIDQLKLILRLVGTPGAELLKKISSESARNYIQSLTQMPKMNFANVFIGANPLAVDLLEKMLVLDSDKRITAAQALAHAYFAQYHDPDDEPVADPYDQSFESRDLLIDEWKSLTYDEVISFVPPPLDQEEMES
Test [8] deals with Insulin-like growth factor 1 receptor (Homo sapiens) (UniProt P08069). Nature of the test: Inhibition of human IGF1R catalytic domain expressed in baculovirus assessed as substrate phosphorylation using fluorescence-labelled peptides as substrate at […] after 90 mins by microfluidic peptide phosphorylation assay.

Chain of Protein kinase C delta type (Homo sapiens) (Q05655 whole entry, looked up, the tested form may be a part): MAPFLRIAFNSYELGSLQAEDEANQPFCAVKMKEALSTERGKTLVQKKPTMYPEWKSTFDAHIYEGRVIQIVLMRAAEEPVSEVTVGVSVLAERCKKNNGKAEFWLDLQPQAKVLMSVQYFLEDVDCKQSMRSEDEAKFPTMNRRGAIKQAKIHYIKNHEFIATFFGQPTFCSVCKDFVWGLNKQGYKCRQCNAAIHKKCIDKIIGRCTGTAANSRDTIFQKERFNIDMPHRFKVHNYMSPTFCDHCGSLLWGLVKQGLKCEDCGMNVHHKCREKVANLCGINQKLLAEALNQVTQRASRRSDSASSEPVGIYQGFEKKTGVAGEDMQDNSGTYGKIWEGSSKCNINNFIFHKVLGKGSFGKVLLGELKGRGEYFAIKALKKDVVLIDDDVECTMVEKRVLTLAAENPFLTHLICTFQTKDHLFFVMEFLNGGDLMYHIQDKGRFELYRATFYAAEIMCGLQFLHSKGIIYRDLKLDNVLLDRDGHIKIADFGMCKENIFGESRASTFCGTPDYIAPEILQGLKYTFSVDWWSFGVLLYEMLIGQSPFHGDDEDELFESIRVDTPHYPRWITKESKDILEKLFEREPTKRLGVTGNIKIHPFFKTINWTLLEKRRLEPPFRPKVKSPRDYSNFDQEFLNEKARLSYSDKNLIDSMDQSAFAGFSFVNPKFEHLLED
Chain of MAP/microtubule affinity-regulating kinase 3 (Homo sapiens) (P27448 whole entry, looked up, the tested form may be a part): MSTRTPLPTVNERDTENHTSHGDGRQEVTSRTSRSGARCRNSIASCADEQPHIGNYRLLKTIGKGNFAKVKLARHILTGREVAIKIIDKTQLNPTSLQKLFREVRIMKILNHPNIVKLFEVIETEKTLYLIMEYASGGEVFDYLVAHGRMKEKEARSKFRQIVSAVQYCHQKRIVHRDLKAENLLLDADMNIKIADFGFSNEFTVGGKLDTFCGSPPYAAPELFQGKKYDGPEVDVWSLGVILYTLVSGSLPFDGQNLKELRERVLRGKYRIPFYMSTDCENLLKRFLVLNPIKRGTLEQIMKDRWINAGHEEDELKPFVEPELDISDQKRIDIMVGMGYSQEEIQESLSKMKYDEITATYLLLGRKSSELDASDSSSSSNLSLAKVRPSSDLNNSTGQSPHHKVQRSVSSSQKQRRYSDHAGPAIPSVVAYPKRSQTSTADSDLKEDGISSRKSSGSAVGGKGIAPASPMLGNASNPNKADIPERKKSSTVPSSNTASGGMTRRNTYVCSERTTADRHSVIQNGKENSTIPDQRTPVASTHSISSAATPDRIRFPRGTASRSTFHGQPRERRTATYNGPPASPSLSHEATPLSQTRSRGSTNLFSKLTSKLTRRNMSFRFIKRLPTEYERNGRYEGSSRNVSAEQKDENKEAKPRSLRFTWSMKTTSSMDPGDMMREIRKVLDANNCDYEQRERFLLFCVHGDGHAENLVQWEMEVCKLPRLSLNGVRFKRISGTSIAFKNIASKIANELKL

For the molecule `NCC1CCN(c2ncnc3[nH]ccc23)CC1`, the inhibition in test [1] was 25.5%.
`c1nc(N2CCOCC2)c2nc[nH]c2n1`: the inhibition in test [2] came out at 32.5%.
Regarding `NC1(Cc2ccc(Cl)cc2)CCN(c2ncnc3[nH]ccc23)CC1`, the inhibition in test [3] is 0%; in test [4], 2%.
On to `NCC1CN(c2ncnc3[nH]c4cnccc4c23)CCO1` (stereo not drawn), for which the inhibition in test [5] stood at 76%.
Take `CNCc1ccc(-c2ncnc3[nH]cnc23)cc1`: the inhibition in test [6] stood at 29.5%.
Regarding `NC1CCN(c2ncnc3[nH]ccc23)CC1`, the inhibition in test [7] worked out at 5.5%.
For `COC(=O)c1cnc(Nc2cnc(C#N)cn2)cc1NCC1CCNCC1`, the inhibition in test [8] was 3.5%.
